According to the supplement of paper PMC10307832:

Tests used:
Assay in all cases: relative viability (nuclei count vs DMSO), 5 days (fraction); higher = more cells survive
Dinaciclib + Lapatinib = compound: CCc1cnn2c(NCc3ccc[n+]([O-])c3)cc(N3CCCC[C@H]3CCO)nc12 [Dinaciclib] + CS(=O)(=O)CCNCc1ccc(-c2ccc3ncnc(Nc4ccc(OCc5cccc(F)c5)c(Cl)c4)c3c2)o1 [Lapatinib] (partner 2 µM)
Method in brief: (§1)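 A single step with final 0.05% Triton X-100, 1% formaldehyde and 1 ug/ml Hoechst fixed the cells and stained nuclei 5 days after treatment. Lung cancer cell lines in 1536-well plates had been treated by pin tool the day after seeding with one drug alone or a fixed anchor-drug dose plus five library-drug doses (not always all listed) in √10 steps, and nuclei were counted on 4× images. Relative viability is the ratio of nuclei in treated wells to nuclei in vehicle wells, taken as the median of duplicate plates.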

Dinaciclib + Pemetrexed = compound: CCc1cnn2c(NCc3ccc[n+]([O-])c3)cc(N3CCCC[C@H]3CCO)nc12 [Dinaciclib] + Nc1nc2[nH]cc(CCc3ccc(C(=O)N[C@@H](CCC(=O)O)C(=O)O)cc3)c2c(=O)[nH]1 [Pemetrexed] (partner 0.2 µM)
Method in brief: as §1

Dinaciclib + Bortezomib = compound: CCc1cnn2c(NCc3ccc[n+]([O-])c3)cc(N3CCCC[C@H]3CCO)nc12 [Dinaciclib] + CC(C)C[C@H](NC(=O)[C@H](Cc1ccccc1)NC(=O)c1cnccn1)B(O)O [Bortezomib] (partner 0.002 µM)
Method in brief: as §1

Dinaciclib + Pictilisib = compound: CCc1cnn2c(NCc3ccc[n+]([O-])c3)cc(N3CCCC[C@H]3CCO)nc12 [Dinaciclib] + CS(=O)(=O)N1CCN(Cc2cc3nc(-c4cccc5[nH]ncc45)nc(N4CCOCC4)c3s2)CC1 [Pictilisib] (partner 1 µM)
Method in brief: as §1

Dinaciclib + Palbociclib = compound: CCc1cnn2c(NCc3ccc[n+]([O-])c3)cc(N3CCCC[C@H]3CCO)nc12 [Dinaciclib] + CC(=O)c1c(C)c2cnc(Nc3ccc(N4CCNCC4)cn3)nc2n(C2CCCC2)c1=O [Palbociclib] (partner 0.5 µM)
Method in brief: as §1

Cell Line	relative viability (Dinaciclib + Lapatinib; first compound 0.009487 µM)	relative viability (Dinaciclib + Lapatinib; first compound 0.03 µM)	relative viability (Dinaciclib + Lapatinib; first compound 0.09487 µM)	relative viability (Dinaciclib + Lapatinib; first compound 0.3 µM)	relative viability (Dinaciclib + Pemetrexed; first compound 0.009487 µM)	relative viability (Dinaciclib + Pemetrexed; first compound 0.03 µM)	relative viability (Dinaciclib + Pemetrexed; first compound 0.09487 µM)	relative viability (Dinaciclib + Pemetrexed; first compound 0.3 µM)	relative viability (Dinaciclib + Bortezomib; first compound 0.009487 µM)	relative viability (Dinaciclib + Bortezomib; first compound 0.03 µM)	relative viability (Dinaciclib + Bortezomib; first compound 0.09487 µM)	relative viability (Dinaciclib + Bortezomib; first compound 0.3 µM)	relative viability (Dinaciclib + Pictilisib; first compound 0.009487 µM)	relative viability (Dinaciclib + Pictilisib; first compound 0.03 µM)	relative viability (Dinaciclib + Pictilisib; first compound 0.09487 µM)	relative viability (Dinaciclib + Pictilisib; first compound 0.3 µM)	relative viability (Dinaciclib + Palbociclib; first compound 0.009487 µM)	relative viability (Dinaciclib + Palbociclib; first compound 0.03 µM)	relative viability (Dinaciclib + Palbociclib; first compound 0.09487 µM)	relative viability (Dinaciclib + Palbociclib; first compound 0.3 µM)
LOU-NH91	0.738	0.302	0.254	0.238	0.443	0.276	0.256	0.234	0.4	0.345	0.287	0.281	0.507	0.288	0.254	0.229	0.508	0.307	0.268	0.273
LU99A	0.759	0.121	0.13	0.127	0.205	0.16	0.132	0.137	0.645	0.134	0.135	0.122	0.283	0.134	0.109	0.122	0.383	0.124	0.138	0.106
LXF-289	0.926	0.167	0.106	0.0884	0.815	0.254	0.0816	0.0773	1.04	0.193	0.0851	0.0696	0.843	0.0778	0.0596	0.0483	0.598	0.213	0.0821	0.108
NCI-H23	0.31	0.128	0.12	0.129	0.445	0.156	0.113	0.117	0.637	0.185	0.0983	0.106	0.41	0.148	0.126	0.145	0.304	0.167	0.0992	0.103
NCI-H322M	0.637	0.325	0.243	0.201	0.569	0.326	0.313	0.343	1.26	1.26	0.52	0.187	0.497	0.262	0.2	0.583	0.441	0.392	0.373	0.384
NCI-H460	0.089	0.0117	0.011	0.0113	0.0617	0.0567	0.0208	0.017	0.591	0.013	0.0102	0.0119	0.264	0.0398	0.0429	0.0452	0.0704	0.0127	0.0174	0.0151
NCI-H520	0.509	0.115	0.104	0.141	0.483	0.123	0.139	0.127	0.23	0.105	0.103	0.14	0.25	0.169	0.0942	0.165	0.232	0.142	0.134	0.126
NCI-H647	0.31	0.0588	0.0482	0.0727	0.149	0.0819	0.0645	0.0608	0.208	0.0668	0.0726	0.0623	0.493	0.0803	0.0566	0.0473	0.18	0.111	0.0539	0.0401
NCI-H650	0.566	0.171	0.0978	0.146	0.877	0.305	0.115	0.139	0.295	0.132	0.129	0.123	0.872	0.218	0.135	0.134	0.374	0.171	0.128	0.101
NCI-H661	0.41	0.183	0.181	0.191	0.798	0.365	0.214	0.151	0.774	0.155	0.167	0.186	0.346	0.181	0.175	0.177	0.431	0.188	0.14	0.153
NCI-H838	0.239	0.106	0.0848	0.109	0.262	0.13	0.12	0.0879	0.231	0.104	0.0725	0.127	0.28	0.117	0.111	0.101	0.224	0.143	0.0896	0.0812
NCI-H1355	0.979	0.681	0.142	0.138	1.04	0.976	0.449	0.116	1.16	1.1	0.223	0.152	0.476	0.146	0.0972	0.133	0.425	0.311	0.154	0.137
NCI-H1437	0.637	0.115	0.0859	0.0933	0.343	0.149	0.158	0.12	0.376	0.205	0.0732	0.0751	0.378	0.0843	0.0843	0.0936	0.245	0.203	0.117	0.119
NCI-H1650	0.648	0.15	0.169	0.143	0.366	0.335	0.152	0.0974	0.172	0.178	0.158	0.142	0.536	0.146	0.101	0.112	0.343	0.0912	0.115	0.0963
NCI-H1651	0.685	0.142	0.0637	0.0602	0.596	0.51	0.112	0.0533	0.96	0.763	0.25	0.0931	0.507	0.115	0.0517	0.0439	0.519	0.383	0.148	0.0571
